The values below come from PMC10956426, “Lipid-Binding Regions within PKC-Related Serine/Threonine Protein Kinase N1 (PKN1) Required for Its Regulation” (Biochemistry, 2024).

This assay has as its target T1, PKN1-(C2), PKN1-(C2)-(342–605) (Rattus norvegicus, UniProt Q63433).
T1 construct: predominantly trimer
Description: intrinsic tryptophan fluorescence quenching, Scatchard. The note with it: 3 lipids per trimer, 20 mM phosphate pH 7.4, 25 mM NaCl, 25 °C, sonicated vesicles. It is filed as binding. The source says: intrinsic tryptophan fluorescence quenching, Scatchard on PKN1-(C2), PKN1-(C2)-(342–605)

Where [1] appears, read: type I (high-affinity) site of a biphasic curve.

T1 sequence (Q63433 342-605): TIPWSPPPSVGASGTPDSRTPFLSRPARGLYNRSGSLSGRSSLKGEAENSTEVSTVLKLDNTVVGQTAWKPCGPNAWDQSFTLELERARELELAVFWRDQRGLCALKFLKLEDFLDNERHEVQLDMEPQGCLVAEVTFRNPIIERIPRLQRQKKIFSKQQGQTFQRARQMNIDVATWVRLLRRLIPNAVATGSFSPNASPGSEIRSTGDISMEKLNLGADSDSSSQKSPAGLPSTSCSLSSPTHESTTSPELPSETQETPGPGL

Broadly, the Kd is the concentration at which binding is half-saturated. Low readings indicate tighter binding, high ones weaker binding. In turn, cardiolipin returned a Kd under setting [1] of 1 ± 0.6 µM.

Under setting [1], phosphatidic acid registered a Kd of 0.3 µM.

Substance phosphatidylcholine yielded a Kd (one class of sites) of 0.1 µM.

With phosphatidylserine, the affinity (one class of sites), expressed as Kd, was 0.2 µM.
